This experiment deals with MIA PaCa-2 cells. Kind of experiment: 1,536-well high-content imaging ALDEFLUOR assay, MIA PaCa-2. It counts as cell-based, human. As to conditions: for Activity in ALDEFLUOR assay, MIA PaCa-2: semi-automated, active = high quality concentration response curve and >50% efficacy, up to 45.8 μM. Here is the method:
To miniaturize the assay into a 1536-well format amenable to qHTS, we chose MIA PaCa-2 and HT-29 because of their high levels of ALDH1A1(Fig 1A). Utilizing the 8-step protocol described by Ming et al. as a starting point, we developed a “semi-automated” protocol described in S1 Table. Briefly, we plated 1,000 cells in a volume of 5 μL/well into black-optical quality clear bottom 1,536-well plates, and allowed cells to attach overnight. Culture media was subsequently removed by inverting and centrifuging plates using a plate adaptor as previously described and replaced with 5 μL of a solution of either 500 or 100 nM BAAA substrate in ALDEFLUOR buffer. To identify cells based on nuclear staining, we also included 0.5 nM Hoechst 33342 in the above buffer. […] After incubating the plate for 30 minutes at 37°C, 5% CO2, 85% RH, the remaining substrate was removed by centrifugation as above and replaced with 3 μL of ALDEFLUOR buffer. Fluorescence was subsequently imaged using the IN Cell Analyzer 2200 high-content widefield fluorescence based imager and the resulting images were quantified using the IN Cell Investigator v1.6.2 analysis software (see Experimental Procedures for analysis details).
The ALDEFLUOR kit was purchased from […] Technologies (Vancouver, Canada; #01700). Cells (5 μL) were dispensed into black, optical quality (cyclic olefin copolymer) clear bottom, medium binding TC treated 1,536-well plates (Aurora Microplates, Whitefish MT) using a Multidrop Combi dispenser (ThermoFisher) and incubated overnight (37°C, 5% CO2, 85% RH). Media was subsequently removed by centrifuging plates upside down using a plate adaptor to collect media. A solution of BAAA substrate ([…] Technologies) and Hoechst 33342 (ThermoFisher, final concentrations of 500 nM and 0.5 nM, respectively) in ALDEFLUOR buffer ([…] Technologies #01700) was dispensed onto cells using a Multidrop Combi followed by immediate transfer (23 nL) of compound or control solutions using a Wako Pin-tool (final percentage of DMSO in the cell plates was 0.5%). Unless otherwise noted, all compounds were assayed as 16-point dilutions spanning a final concentration range of 1.4 nM to […]. […] Cells were incubated for 30 minutes or the indicated amount of time at 37°C, 5% CO2, 85% RH to allow the conversion of BAAA into BAA. Supernatant was subsequently removed by centrifugation as described above, then ALDEFLUOR buffer (3 μl) was dispensed by Multidrop Combi before imaging on an IN Cell 2200 (GE Healthcare).
The above assay was modified for an online robotic screening system. After cell plating and overnight incubation, 4 μL of media were removed using a 64-tip metal aspirator head on a Wako aspirator station, leaving 1 μL remaining in the well, followed by a 4 μL dispense of BAAA and Hoechst 33342 in ALDEFLUOR buffer, for a final concentration of 500 nM and 0.5 nM, respectively. Immediately following the dispense, 23 nL of compound or control solutions were transferred using a Wako Pin-tool. Cells were incubated for 30 minutes at 37°C, 5% CO2, 85% RH, followed by a 4 μL media removal using the Wako aspirator, and a subsequent 3 μL addition of ALDEFLUOR buffer. Plates were then immediately read on the IN Cell 2200 as described below.
For images captured on the IN Cell 2200 widefield automated microscope, a 10x 0.45 NA Plan Apo objective lens was used to capture the entire well of the 1,536-well plate using standard DAPI (390/18x, 432/48m) and FITC (475/28x, 525/48m) filter sets at 50 msec and 100 msec exposures, respectively. Images were subsequently analyzed using IN Cell Investigator v1.6.2 analysis software’s canned Multi-Target Analysis algorithm (GE Healthcare). Hoechst stained nuclei were identified using top hat segmentation with a minimum area of 75 μm^2 and sensitivity of 93. […]

Setting [1] is: Homo sapiens, MIA PaCa-2, 0.5 h, validation set, semi-automated protocol, 16-point dilution, 1,000 cells/well, 500 nM BAAA, 30 min, read-out: Aldefluor IC50 MIA PaCa-2.
[2] abbreviates: validation set, semi-automated protocol, 16-point dilution, 1,000 cells/well, 500 nM BAAA, 30 min, read-out: Aldefluor IC50 MIA PaCa-2.

Where two headings read alike, the source gives them in different places.

As to `CC(C)=CCCC(C)=CC=O` (mixture of isomers) [Citral], the IC50 (in general, the midpoint of a concentration-inhibition curve) is approximately 27 µM under setting [1] and 27.8 µM under setting [2].

Turning to `COc1ccc(C(=O)CCN(C)C)cc1F` [Aldi-2], under setting [2], the IC50 came out at 18 µM.

Take `CC(C)(C)c1ccc(S(=O)(=O)/C=C/C#N)cc1` [Bay-11-7085]: the IC50 under setting [2] was found to be 20 µM.

With `Cc1nc2ccccc2n1S(=O)(=O)c1ccc(F)cc1` [CB7], the “Activity in ALDEFLUOR assay, MIA PaCa-2” value was “tested negative”.

For `CCOc1ccc(NCC(=O)Nc2ccc(Cl)cc2C)cc1` [CID 725345], under setting [2], the IC50 stood at 9.46 µM.

With `COc1cccc2cc(C(=O)CC3(O)C(=O)N(Cc4ccccc4)c4ccccc43)c(=O)oc12` (stereo not shown) [CID 2929292], the “Activity in ALDEFLUOR assay, MIA PaCa-2” value is “tested negative”.

Regarding `CCN(CC)c1ccc(C=O)cc1` [DEAB, 4-N,N-diethylaminobenzaldehyde], under setting [2], the IC50 was 3.44 µM.

Turning to `O=c1c(-c2ccc(O)cc2)coc2cc(O[C@@H]3O[C@H](CO)[C@@H](O)[C@H](O)[C@H]3O)ccc12` [Daidzin], the “Activity in ALDEFLUOR assay, MIA PaCa-2” value is on record as “tested negative”.

On to `CCN(CC)C(=S)SSC(=S)N(CC)CC` [Disulfiram], for which the IC50 under setting [1] was 11 µM.

As to `Cc1cc2c(C(C)C)c(O)c(O)c(C=O)c2c(O)c1-c1c(C)cc2c(C(C)C)c(O)c(O)c(C=O)c2c1O` [Gossypol], the “Activity in ALDEFLUOR assay, MIA PaCa-2” value was “inactive”.

For the compound `Nc1ccccc1C(=O)CC(N)C(=O)O` (stereo not shown) [Kynurenine], the “Activity in ALDEFLUOR assay, MIA PaCa-2” value is recorded as “tested negative”.

Consider `C[S+](=O)([O-])c1ccc(Cn2c3c(c4cc(F)cc(F)c42)CCCC3CC(=O)O)cc1` [L-670596], for which the IC50 is approximately 10 µM (Homo sapiens, MIA PaCa-2, retest of screen hits, 11-point dose response 0.77 nM to 45.8 μM, read-out: ALDEFLUOR IC50 MIA PaCa2) and 10.8 µM (retest of screen hits, 11-point dose response 0.77 nM to 45.8 μM, read-out: ALDEFLUOR IC50 MIA PaCa2).

Take `C#CCN(C)Cc1ccccc1` [Pargyline]: the “Activity in ALDEFLUOR assay, MIA PaCa-2” value is “inactive”. Moreover, where the note is “Homo sapiens, MIA PaCa-2, fully automated protocol-2 with two washes, read-out: IC50 of BAA signal reduction, automated protocol”, the half-inhibitory concentration (IC50) was approximately 5 µM.

On to `CC(C)N(C(=O)CCl)c1ccccc1` [Propachlor], for which the IC50 (Homo sapiens, MIA PaCa-2, read-out: ALDEFLUOR IC50 MIA PaCa2) was 0.3 µM.

Consider `O=C1Nc2ccccc2C1=O` [indoline-2,3-dione], for which the IC50 under setting [1] was 12 µM.

With CVT-10216, the “Activity in ALDEFLUOR assay, MIA PaCa-2” value is reported as “tested negative”.

The values are drawn from PMC5271370, “A High-Content Assay Enables the Automated Screening and Identification of Small Molecules with Specific ALDH1A1-Inhibitory Activity” (PLoS ONE, 2017).
